The values that follow come from patent US6789546B2, “Filters for preventing or reducing tobacco smoke-associated injury in the aerodigestive tract of a subject” (Technion Research & Development Foundation Ltd., priority 2001, dated 2004).

The test system of series [1] is oral peroxidase (OPO). Put plainly: OPO activity in saliva exposed in vitro to tobacco smoke (NBS-SCN assay). Type of series: biochemical, human.
Series [2] has as its system oral peroxidase (OPO). Type of series: biochemical, human. The conditions noted are these: for OPO activity in the presence of aldehydes: 2 mM acetylaldehyde, 80 μM acrolein, 20 μM crotonaldehyde, TS-treated saliva.
In series [3] the test system is lymphocytes. Put plainly: Lymphocyte survival by Trypan Blue exclusion assay. Type of series: cell-based, human. As for the experimental part: Saliva Collection: Saliva was collected from healthy subjects, 3 males and 3 females ranging from 21-47 years of age, under non-stimulatory conditions in a quiet room during the morning between 8 am and noon. Saliva collection was performed at least 1 h after eating by spitting into a recipient for 10 minutes, as previously described (43). Following collection, saliva was immediately centrifuged at 800×g for 10 min at 4° C. to remove cells and cell debris and the resulting supernatant was used for biochemical analyses.
(§1) Lymphocyte Isolation: Blood from 10 consenting, healthy, non-smoking subjects, 5 males and 5 females ranging from 18-55 years of age, was drawn into EDTA-containing vacutainers. Lymphocytes were isolated by Ficoll-Hypaque (Sigma) gradient centrifugation according to the manufacturer's instructions and lymphocytes were suspended at 10^7 cells/ml PBS (Beit-Ha'emek Industries, Israel), and used immediately in experiments.
(§2) A reproducible vacuum was created in the flask and upon application of vacuum for 5 s, 80-100 ml of TS from the lit cigarette was drawn into the flask. […] Saliva treatment of lymphocytes was performed by suspending these in PBS supplemented with 30% (v/v) saliva. Following treatment with the TS of 0.5 cigarettes, flasks were incubated at 37° C. for 20 min in a metabolic shaker and subjected to a further 4 treatments with TS, as described above.
Measurement of Lymphocyte Survival: Lymphocyte viability was assessed by Trypan Blue exclusion assay.

The target of a further series is T1, MPO (Homo sapiens, UniProt P05164).
T1 construct: purchased
T1 sequence (P05164 49-745): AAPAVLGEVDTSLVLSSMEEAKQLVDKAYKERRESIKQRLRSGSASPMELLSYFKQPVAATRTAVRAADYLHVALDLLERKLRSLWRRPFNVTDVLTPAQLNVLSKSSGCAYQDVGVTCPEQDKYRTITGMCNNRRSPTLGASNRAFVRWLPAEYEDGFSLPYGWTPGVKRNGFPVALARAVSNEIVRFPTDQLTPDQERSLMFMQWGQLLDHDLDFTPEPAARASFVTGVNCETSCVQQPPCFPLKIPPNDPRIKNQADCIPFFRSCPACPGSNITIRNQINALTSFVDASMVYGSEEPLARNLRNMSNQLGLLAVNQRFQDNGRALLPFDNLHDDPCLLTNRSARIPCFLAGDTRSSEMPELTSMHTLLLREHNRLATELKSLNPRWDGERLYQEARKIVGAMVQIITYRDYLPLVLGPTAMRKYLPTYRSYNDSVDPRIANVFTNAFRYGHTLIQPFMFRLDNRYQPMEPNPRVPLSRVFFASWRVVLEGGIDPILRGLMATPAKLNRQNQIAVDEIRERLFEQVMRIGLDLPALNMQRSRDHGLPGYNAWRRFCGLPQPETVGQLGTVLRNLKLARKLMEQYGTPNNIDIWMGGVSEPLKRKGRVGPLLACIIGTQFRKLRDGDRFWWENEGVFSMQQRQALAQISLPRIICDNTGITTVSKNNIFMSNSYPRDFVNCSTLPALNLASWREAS
Put plainly: Control MPO activity (commercial MPO) in the presence of dapsone. The conditions noted are these: 150 μM dapsone. Type of series: biochemical. As for the experimental part:
FIG. 7 is a data plot depicting the effect of increasing concentrations of dapsone (4-aminophenylsulfone) on OPO activity in TS-treated saliva. Abbreviations: NO.1, NO.2, NO.3, NO4 and NO.5 correspond to saliva from 5 different subjects and plasma corresponds to commercial MPO.
Analysis of OPO Activity: OPO activity was measured according to the 2-nitrobenzoic-thiocyanate (NBS-SCN) assay, as previously described (20). Briefly, DTNB is reduced to NBS by addition of β-mercaptoethanol and decreases in NBS concentration by reaction with OSCN^−, a product of OPO, are monitored spectrophotometrically by measuring absorbance at 412 nm at pH 5.6 (18). One unit of enzyme activity was defined as the activity required to cleave 1 μmol of NBS/min at 22° C., using a molar extinction coefficient of 12,800 (20).
Thus, in order to determine which of the MPO or SPO activity components of OPO activity are lost as a result of exposure to TS, OPO activity in TS-treated saliva was measured in the presence of increasing concentrations of 50-150 μM dapsone.

The test system of series [4] is lymphocytes. Put plainly: Western immunoblotting analysis of lymphocyte protein carbonylation. Type of series: cell-based, human.
Excerpt: Western Immunoblotting Analysis of Protein Carbonylation: Salivary proteins were separated by SDS-PAGE using a 10% gel and electro-blotted onto nitrocellulose membranes, as previously described (14). The Oxyblot Kit (Intergen Co, Purchase N.Y.) was used with anti-dinitrophenyhydrazine (DNPH) antibodies to label carbonylated proteins. Protein carbonylation levels were then visualized by reacting labelled blots with a secondary HRP-conjugated anti-rabbit antibody followed by ECL detection of secondarily labelled proteins, as previously described (14).
as §1
as §2, with “Treatment of Lymphocytes With TS in the Presence of Saliva: Exposure of lymphocytes to TS was carried out by attaching a Time cigarette (capable of removing particles>[…] in diameter) in which the filter tip was removed to a Cambridge filter which was combined with a vacuum system to aspirate gas-phase TS inside sealed 250 ml flasks containing lymphocytes suspended in 12-15 ml PBS, as previously described (14, 15). A” for “A”
Western Immunoblotting Analysis of Lymphocyte Protein Carbonylation: Lymphocytes were washed twice in PBS following treatment by centrifugation at 2,000 rpm for 2 minutes to remove saliva and other components of the incubation medium. Lymphocytes were then centrifuged at 14,000 rpm for 1 minute and lysed by sonication for 10 seconds in lysis buffer containing 20 mM Tris pH 7.4, 1 mM EGTA, 1 mM PMSF, 50 μM NaVO4 and 50 mM NaF. Lysates were centrifuged at 14,000 rpm for 1 minute and supernatants were harvested for analysis. Carbonylation analysis was performed as described above.
In general terms: Immunoblotting shows a protein as a band on a membrane.

The mark [5] stands for this setting: lymphocytes in PBS, 20 minutes, 80 μM acrolein, 20 μM crotonaldehyde or 2 mM acetaldehyde.

Turning to `C/C1=C2/[N-][C@H]([C@H](CC(N)=O)[C@@]2(C)CCC(=O)NC[C@@H](C)OP(=O)([O-])O[C@H]2[C@@H](O)[C@@H](n3cnc4cc(C)c(C)cc43)O[C@@H]2CO)[C@]2(C)N=C(/C(C)=C3N=C(/C=C4N=C1[C@@H](CCC(N)=O)C\4(C)C)[C@@H](CCC(N)=O)[C@]\3(C)CC(N)=O)[C@@H](CCC(N)=O)[C@]2(C)CC(N)=O.[Co+3].[OH-]` [OH—CO, hydroxocobalamin], the “prevention of loss of OPO activity in saliva” value in the series with oral peroxidase (OPO) [1] (increasing amounts of OH—CO (0.5, 1, 2 mM, FIG. 14), 40 min after treatment with TS) is “prevent, to a significant extent”. The “prevention of loss of OPO activity by preincubation” value with oral peroxidase (OPO) [1] (preincubation of saliva with OH—CO, TS or KCN) is “could prevent both TS- and KCN-associated loss of OPO activity”. Moreover, the “prevention of KCN-associated loss of OPO activity” value in the series on oral peroxidase (OPO) [2] (1 mM OH—CO, saliva treated 2 min with 1 mM KCN) is given as “completely prevent”.
Turning to `[Cl][Fe]([Cl])[Cl]` [FeCl3], the “inhibition of OPO activity” value with oral peroxidase (OPO) [2] (saliva exposed 2 h to 1 mM ascorbate or 100 μM FeCl3) is reported as “did not inhibit OPO activity”.
As for `CC(=O)N[C@@H](CS)C(=O)O` [NAC, N-acetylcysteine], the “effect on death rate of lymphocytes exposed to TS and saliva” value in the series with lymphocytes [3] is given as “did not alter the death rate”.
Regarding `O=C1O[C@H]([C@@H](O)CO)C(O)=C1O` [ascorbate], the lymphocyte survival rate in the series with lymphocytes [3] (ascorbate (1 mM) added to PBS containing FeCl3 (90 μM), no saliva, 20 min (FIG. 23 column 8)) came to 77%; in the series on lymphocytes [3] (ascorbate (1 mM) added to saliva-containing medium without exposure to TS, 20 min (FIG. 23 column 6)) it was 78%.
Regarding `CC=O` [acetaldehyde], in the series with oral peroxidase (OPO) [2], the “OPO activity in the presence of aldehydes” value (“OPO activity … of aldehydes” below) was “unaffected”. In the series with lymphocytes [3] (both, human), this compound yielded a death rates of 92.7%.
Turning to `Nc1ccc(S(=O)(=O)c2ccc(N)cc2)cc1` [dapsone, 4-aminophenylsulfone], the “loss of OPO activity in the presence or absence of the agent” value with oral peroxidase (OPO) [1] (TS-treated saliva containing ~40% MPO, 150 μM dapsone) was “similar”. For the same compound, the “Loss of OPO activity” value with oral peroxidase (OPO) [1] (TS-treated saliva in the presence of 150 μM dapsone) is given as 60-85%. At MPO, the “control MPO activity” value was “unaffected”.
In the case of `O=c1[nH]c(=O)c2[nH]c(=O)[nH]c2[nH]1` [uric acid], the “lymphocyte protein carbonylation levels” value in the series with lymphocytes [4] (uric acid added to suspension medium instead of saliva (10 or 100 μM, FIG. 18), no TS) is “reduced carbonylation levels”.
As for `C/C=C/C=O` [crotonaldehyde], the “OPO activity … of aldehydes” value with oral peroxidase (OPO) [2] was “unaffected”. The death rates in the series on lymphocytes [3] (both, human) came to 75.3%. In the series with lymphocytes [3] (setting [5]), this compound yielded a survival rates of 80.3%.
Take `C=CC=O` [acrolein]: in the series on oral peroxidase (OPO) [2], the “OPO activity … of aldehydes” value is “unaffected”. For the same compound, the survival rates is recorded as 57.9% in the series on lymphocytes [3] (acrolein, first value of 'respectively' (taken as without saliva), time not given); 66.4% in the series on lymphocytes [3] (acrolein, second value of 'respectively' (taken as with saliva), time not given); 63.3% in the series with lymphocytes [3] (setting [5]). The compound further had a death rates in the series with lymphocytes [3] (lymphocytes in PBS, 80 minutes, 80 μM acrolein, 20 μM crotonaldehyde or 2 mM acetaldehyde) of 57.3%. For the same compound, the “lymphocyte protein carbonylation levels” value in the series on lymphocytes [4] (acrolein with saliva versus acrolein alone (FIG. 22: 80 μM, 20 min)) is “did not enhance carbonylation levels”.
As for `N#C[S-].[K+]` [KSCN, potassium thiocyanate], in the series on oral peroxidase (OPO) [1], the “protection against TS-induced loss of OPO activity” value is “significant protection against loss of OPO activity”.
With `N[C@@H](CCC(=O)N[C@@H](CS)C(=O)NCC(=O)O)C(=O)O` [GSH, L-γ-glutamyl-1-cysteine-glycine], in the series on oral peroxidase (OPO) [1] (1 mM agent), the “loss of OPO activity in TS-treated saliva in the presence or absence of the agent” value is recorded as “similar”. In addition, the “effect on death rate of lymphocytes exposed to TS and saliva” value in the series on lymphocytes [3] is reported as “partially prevented”. Besides, the “protection assessed by lymphocyte protein carbonylation levels” value with lymphocytes [4] (TS and saliva, 20 minutes, 1 mM agent (FIG. 20)) was “unique protection”. Further, the “protection from aldehyde-induced protein carbonylation” value in the series on lymphocytes [4] (aldehydes + 1 mM GSH, 20 min (FIG. 21)) is listed as “protection provided by GSH was similar”.
Consider `CC(=O)N(O)CCCCCNC(=O)CCC(=O)N(O)CCCCCNC(=O)CCC(=O)N(O)CCCCCN` [deferoxamine], for which the lymphocyte survival rate with lymphocytes [3] (TS and saliva treatment, 80 minutes, 1 mM agent) is given as 23.7%.
